Assay results published in ChEMBL document CHEMBL3045209, “Synthesis of a novel barbiturate from 1-chloro-2,4-dinitrobenzene as an anticonvulsant agent” (2008).
The source made the active and inactive calls. The calls are words filed in the database; no cut-off is given here.

How the values were obtained:
[1] = system: Rattus norvegicus; assay: Anticonvulsant activity against maximal electroshock-induced convulsion in Rattus norvegicus albino (rat) assessed as tonic extensor convulsion time at 25 mg/kg administered 1 hr before test; assay type: functional
[2] = system: Rattus norvegicus; assay: Anticonvulsant activity against maximal electroshock-induced convulsion in Rattus norvegicus albino (rat) assessed as tonic flexor convulsion time at 25 mg/kg administered 1 hr before test; assay type: functional
[3] = system: Rattus norvegicus; assay: Anticonvulsant activity against maximal electroshock-induced convulsion in Rattus norvegicus albino (rat) assessed as stupor convulsion time at 100 mg/kg administered 1 hr before test; assay type: functional
[4] = system: Rattus norvegicus; assay: Anticonvulsant activity against maximal electroshock-induced convulsion in Rattus norvegicus albino (rat) assessed as recovery from convulsion at 25 to 100 mg/kg administered 1 hr before test; assay type: functional, organism-based
[5] = system: Rattus norvegicus; assay: Anticonvulsant activity against maximal electroshock-induced convulsion in Rattus norvegicus albino (rat) assessed as tonic extensor convulsion time at 100 mg/kg administered 1 hr before test; assay type: functional
[6] = system: Rattus norvegicus; assay: Anticonvulsant activity against maximal electroshock-induced convulsion in Rattus norvegicus albino (rat) assessed as tonic extensor convulsion time at 50 mg/kg administered 1 hr before test; assay type: functional
[7] = system: Rattus norvegicus; assay: Anticonvulsant activity against maximal electroshock-induced convulsion in Rattus norvegicus albino (rat) assessed as clonus convulsion time at 25 mg/kg administered 1 hr before test; assay type: functional
[8] = system: Rattus norvegicus; assay: Anticonvulsant activity against maximal electroshock-induced convulsion in Rattus norvegicus albino (rat) assessed as clonus convulsion time at 50 mg/kg administered 1 hr before test; assay type: functional
[9] = system: Rattus norvegicus; assay: Anticonvulsant activity against maximal electroshock-induced convulsion in Rattus norvegicus albino (rat) assessed as stupor convulsion time at 25 mg/kg administered 1 hr before test; assay type: functional
[10] = system: Rattus norvegicus; assay: Anticonvulsant activity against maximal electroshock-induced convulsion inRattus norvegicus albino (rat) assessed as stupor convulsion time at 50 mg/kg administered 1 hr before test; assay type: functional
[11] = system: Rattus norvegicus; assay: Anticonvulsant activity against maximal electroshock-induced convulsion in Rattus norvegicus albino (rat) assessed as tonic flexor convulsion time at 100 mg/kg administered 1 hr before test; assay type: functional
[12] = system: Rattus norvegicus; assay: Anticonvulsant activity against maximal electroshock-induced convulsion in Rattus norvegicus albino (rat) assessed as clonus convulsion time at 100 mg/kg administered 1 hr before test; assay type: functional
[13] = system: Rattus norvegicus; assay: Anticonvulsant activity against maximal electroshock-induced convulsion in Rattus norvegicus albino (rat) assessed as tonic flexor convulsion time at 50 mg/kg administered 1 hr before test; assay type: functional
[14] = system: Rattus norvegicus; assay: Anticonvulsant activity against maximal electroshock-induced convulsion in Rattus norvegicus albino (rat) assessed as recovery from convulsion at 25 mg/kg administered 1 hr before test; assay type: functional, organism-based; set-up: dose 25 mg/kg

O=C1CC(=O)NC(=O)N1 [BARBITURIC ACID]
Time [1]: 13.2 s
Time [2]: 4.2 s
Time [3]: 85.7 s
Activity [4]: Active
Time [5]: 2 s
Time [6]: 6.5 s
Time [7]: 7.2 s
Time [8]: 5.1 s
Time [9]: 105.5 s
Time [10]: 82.2 s
Time [11]: 2.9 s
Time [12]: 5.6 s
Time [13]: 3.1 s

O=C1NC(=O)C(c2ccccc2)(c2ccccc2)N1 [PHENYTOIN]
Time [1]: 0 s
Time [2]: 2.66 s
Activity [14]: Active
Time [7]: 4.6 s
Time [9]: 62.1 s
